In US20070166777A1, “Methods for detecting lp-pla2 activity and inhibition of lp-pla2 activity” (priority 2004, published 2007):

Assay: Pharmacokinetics in clinical studies, plasma level
Conditions: human subjects, administered in vivo in clinical studies

- peak plasma level: 90 ng/mL
Structure (SMILES): CCN(CC)CCN(Cc1ccc(-c2ccc(C(F)(F)F)cc2)cc1)C(=O)Cn1c(SCc2ccc(F)cc2)nc(=O)c2c1CCC2 [Formula II, -(N-(2-(Diethylamino)ethyl)-N-(4-(4-trifluoromethylphenyl)benzyl)-aminocarbonylmethyl)-2-(4-fluorobenzyl)thio-5,6-trimethylenepyrimidin-4-one bitartrate]
